Assay results taken from US20250017206A1, “METHODS FOR PREVENTING OR REDUCING BACTERIAL INFECTION OF PLANT SEEDS” (priority 2022, published 2025).
“Also recorded” adds a separate entry of the source.

Experiments:
Acidovorax citrulli = assay: A. citrulli growth on LB agar growth medium containing tea, extracts or compounds; type: cell-based; settings: for inhibition of A. citrulli (summary): compound alone in culture
Description: A. citrulli growth on LB agar medium was assessed after treatment with commercial brands of black and green teas and their constituent compounds to determine inhibitory effects. Dried loose tea leaves were boiled in distilled water, strained, and liquid added to LB agar growth medium to assess concentration effects. Five grams of loose-leaf tea was autoclaved in 200 mL distilled water for 25 minutes in the liquid cycle. After autoclaving, the tea was cooled to room temperature and filtered using Whatman #1 filter paper. The filtered tea was adjusted by spectrophotometry (DU 800, Beckman Coulter) to 4.0, 3.0, 2.0, 1.0, and 0.5 at OD390.
Luria Broth (LB) agar growth medium was prepared by mixing 10 grams of tryptone, 5 grams of yeast extract, and 10 grams of sodium chloride, and 15 grams of Bacto™ Agar Solidifying Agent (BD Diagnostics) in 1 liter of distilled water (pH: 7.5) before autoclaving. Collected bacteria were resuspended in autoclave-sterilized 10 mM MgCl2, and adjusted to 1.0, 0.5, 0.1, 0.01, and 0.001 OD600 spectrophotometry.
1 mL of each standard compound was added to 10 mL of LB agar growth medium.
Growth curve on growth medium containing inhibitory extracts and compounds to test whether Acidovorax citrulli could grow in the presence of green and black teas and some of their constituents, growth analysis was conducted in Petri dishes on solid LB agar containing tea or its extracts to quantitate bacterial growth inhibition. We also wanted to see whether tea and its constituents affected antibiotic resistance by comparing growth on both LB agar and Rifampicin containing LB agar. […] For the second stage, effects were verified by blotting 20 μL of inoculum with 9 1:10 serial dilutions to be able to count bacterial colonies. After growth medium solidified, 5 μL of bacterial inoculum adjusted at OD600: to 1.0, 0.5, 0.1, 0.01, or 0.001 (at first stage) and 20 μL of bacterial inoculum adjusted to OD600: 10^0, 10^−1, 10^−2, 10^−3, 10^−4, 10^−5, 10^−6, 10^−7, 10^−8, 10^−9 were blotted on the LB agar growth medium, containing tea samples or other extracts (1:10 mL). The Petri dishes inoculated with bacteria were incubated at 28° C. for 72 h in dark. Autoclaved distilled water was added to growth medium in a separate replicate with 5 μL of 10 mM MgCl2 and bacteria as a negative control. In order to check if additional distilled water affected bacterial growth, growth on LB medium with and without water was compared. Results were compared by colonies. When colonies could not be separated, bacterial growth was scored between 1 and 0 depending on the amount of growth on the surface of the blot.

[1] = test system: A. citrulli strain AAC00-1; settings: components of cinnamon oil; Choi et al. (2016); cited from earlier work

Question: Which results are given for catechin?
Answer: bacterial colony growth at 10 mM catechin (Acidovorax citrulli; AAC00-1, 0.1, 1, 10 mM compared, only 10 mM inhibitory, with or without rifampicin): inhibitory; also recorded: inhibited bacterial growth; effect of antibiotic presence on bacterial colony growth inhibition by catechin (Acidovorax citrulli; AAC00-1, catechin 0.1, 1, 10 mM, with or without rifampicin 100 μg/mL): No difference; bacterial growth at 5-10-15 mM (Acidovorax citrulli; AAC00-1 OD600 1.0-0.001, 5-10-15 mM): inhibited all bacterial growth; inhibition of A. citrulli (summary) (Acidovorax citrulli): strongly inhibitory; bacterial colony growth at 1 mM (Acidovorax citrulli; final concentration 1 mM in LB agar with rifampicin 100 μg/mL, M6, AAC00-1, aacI, aacR, OD600 1.0-0.001): inhibited A. citrulli; also recorded: inhibited some lower density colonies of bacteria; bacterial colony growth at 10 mM (Acidovorax citrulli; final concentration 10 mM in LB agar with rifampicin 100 μg/mL, M6, AAC00-1, aacI, aacR, OD600 1.0-0.001): inhibited A. citrulli; also recorded: completely inhibited bacterial growth; also recorded: inhibited growth of all bacterial strains; less A. citrulli growth in catechin treatments compared to caffeine treatment (Acidovorax citrulli; overall, 3-Way ANOVA, 95% significance level): ~25%; inhibition of A. citrulli compared with black tea and caffeine (Acidovorax citrulli; preliminary, data not shown): greater than black tea and caffeine

Question: With `Oc1cc(O)c2c(c1)O[C@H](c1cc(O)c(O)c(O)c1)[C@H](O)C2` [EGC, epigallocatechin, reference compound] as the compound, how does the “bacterial growth at 1 mM EGC” value (Acidovorax citrulli; 1 mM, bacteria OD600 0.1 and 0.01) read?
Answer: efficient inhibitor; also recorded: inhibited bacterial growth on 0.1 dilution of bacteria

Question: And the “bacterial growth at 0.5-1-1.5 mM EGC” value (Acidovorax citrulli; AAC00-1 OD600 1.0-0.001, 0.5-1-1.5 mM)?
Answer: did not show inhibitory effects; also recorded: showed no inhibition

Question: And the “minimum concentration required for inhibition” value (Acidovorax citrulli; bacterial concentration OD600 0.001, AAC00-1)?
Answer: 0.5 mM

Question: Which “inhibition of A. citrulli (summary)” value (Acidovorax citrulli) does the source give for `Cn1c(=O)c2c(ncn2C)n(C)c1=O` [caffeine, reference compound] here?
Answer: not inhibitory

Question: For `O=CC=Cc1ccccc1` [cinnamaldehyde], which “antibacterial activities against strain AAC00-1” value [1] is on record?
Answer: exhibited antibacterial activities

Question: With `O=C(O[C@@H]1Cc2c(O)cc(O)cc2O[C@@H]1c1ccc(O)c(O)c1)c1cc(O)c(O)c(O)c1` [ECG, epicatechin gallate, reference compound] as the compound, how does the “bacterial growth at 0.5 mM” value (Acidovorax citrulli; 0.5 mM, AA000-1, maximum bacterial concentration OD600 0.01) read?
Answer: inhibited bacterial growth

Question: What about the “bacterial growth at 1.5 mM” value (Acidovorax citrulli; AAC00-1, 1.5 mM, bacterial OD600 1.0) of the same compound?
Answer: completely inhibitory; also recorded: inhibited all bacterial growth

Question: For `O=Cc1ccccc1` [benzaldehyde], which “antibacterial activities against strain AAC00-1” value [1] is on record?
Answer: exhibited antibacterial activities
